Reference: patent US20070270441A1, “Combination” (Altana Pharma AG, priority 2001, published 2007)
Entries after “also recorded” stand apart in the source; their conditions may differ.

Tests used:
[1] = tested on: rheumatoid arthritis patients with active disease despite METHOTREXATE treatment; details: in combination with a fixed low-dose (7.5 mg per week) of METHOTREXATE; small number of patients; cited from earlier work
[2] = tested on: Collagen-induced arthritis (CIA) in DBA/1 mice; test: Collagen-induced arthritis (CIA) in DBA/1 mice; format: in vivo; details: for severity of arthritis compared with control mice: single drug, oral daily for 10 consecutive days, ROFLUMILAST 1 mg/kg, PUMAFENTRINE hydrochloride 3 mg/kg, significant on days 35 and 39
Protocol: Collagen-induced arthritis (CIA) in DBA/1 mice: Mice were immunized intradermally with 200 μg/mouse of type II (CII) bovine collagen in Freund's complete adjuvant (FCA) and challenged intraperitoneally 21 days later with 200 μg/mouse of CII in saline. The mice were then administered orally either with 1 mg/kg/day of 3-Cyclopropylmethoxy-4-difluoromethoxy-N-(3,5-dichloropyrid-4-yl)-benzamide [INN: ROFLUMILAST], 3 mg/kg/day of (−)-cis-9-ethoxy-8-methoxy-2-methyl-1,2,3,4,4a,10b-hexahydro-6-(4-diisopropylaminocarbonylphenyl)-benzo[c][1,6]naphthyridine hydrochloride [INN: PUMAFENTRINE hydrochloride], 1 mg/kg/day of METHOTREXATE, or with combinations of METHOTREXATE and the PDE inhibitors for 10 consecutive days, starting 2 days after challenge injection. Control mice received either METHOTREXATE alone (1 mg/kg/day) or the vehicle only.
DBA/1 mice were obtained from Harlan Olac (Bicester, UK) and used 8 weeks old. CIA was induced as described previously (Ruchatz, H., et al., J Immunol. 1998, 160(11):5654-60). Briefly, mice were immunised by intradermal injection of 200 μg of acidified type II collagen (Sigma, Poole UK) emulsified in Freund's Complete adjuvant (FCA, Difco, Detroit, Mich., USA). Collagen (200 μg in PBS) was injected intraperitoneally on day 21 (challenge). Mice were individually ear marked for identification. They were monitored daily and scored every other day for signs of arthritis as follows: 0=normal, 1=erythema, 2=erythema plus swelling, 3=extension/loss of function, and total score=sum of four limbs. Paw thickness was measured with a dial-calliper (Kroeplin, Munich, Germany). […] (3 mg/kg, calculated for PUMAFENTRINE), METHOTREXATE (1 mg/kg), or combinations were administered orally daily by a gavage tube for 10 consecutive days. […] Treatment was withdrawn on day 33 and the mice monitored for a further 8 days. Influence of drug treatments on mean clinical index, arthritic paws and paw thickness were analysed by one-way ANOVA at days 31, 35, and 39. Between group differences in incidence of arthritis were analysed by chi-square test.

[3] = tested on: rheumatoid arthritis patients unresponsive to METHOTREXATE alone; details: combination with METHOTREXATE; cited from earlier work

## INFLIXIMAB: chimeric human-murine monoclonal antibody, a specific inhibitor of tumour necrosis factor alpha
[1]
  degree and duration of efficacy: enhanced degree and duration of efficacy

## CN(Cc1cnc2nc(N)nc(N)c2n1)c1ccc(C(=O)N[C@@H](CCC(=O)O)C(=O)O)cc1 [METHOTREXATE, N-(p{[(2,4-diamino-6-pteridinyl)methyl]methylamino}benzoyl)-L-(+)-glutamic acid]
[2]; METHOTREXATE alone 1 mg/kg/day, oral, 10 days
  clinical improvement compared with control mice: failed to produce a significant clinical improvement; also recorded: failed to demonstrate any clinical improvement

## O=C(Nc1c(Cl)cncc1Cl)c1ccc(OC(F)F)c(OCC2CC2)c1 [ROFLUMILAST, 3-Cyclopropylmethoxy-4-difluoromethoxy-N-(3,5-dichloropyrid-4-yl)-benzamide]
[2]
  severity of arthritis compared with control mice: effective in reducing the severity of arthritis; also recorded: significantly less severe disease

## CCOc1cc2c(cc1OC)C(c1ccc(C(=O)N(C(C)C)C(C)C)cc1)=N[C@H]1CCN(C)C[C@@H]21.Cl [PUMAFENTRINE hydrochloride, (−)-cis-9-ethoxy-8-methoxy-2-methyl-1,2,3,4,4a,10b-hexahydro-6-(4-diisopropylaminocarbonylphenyl)-benzo[c][1,6]naphthyridine hydrochloride]
[2]; hydrochloride
  severity of arthritis compared with control mice: effective in reducing the severity of arthritis; also recorded: significantly less severe disease

## ETANERCEPT
[3]
  efficacy in rheumatoid arthritis: effective
